In patent publication US12280212B2, “Method and apparatus for simultaneously administering oxygen, and metered dose inhaler medication by inhalation” (priority 2019, dated 2025):

Assay: MDI inserted through a port into an oxygen mask without extender tube at 2-15 L/min oxygen flow, measured blood levels
Type: in vivo, patient
Details: 2-15 L/min oxygen flow (wash-out)
Description: The relatively high flow oxygen jet disperses the drug aerosol initially expressed into the mask from the MDI that was inserted into the mask, and as a result, much of the drug is dispersed around the interior of the mask and is washed out of the mask and back out through the MDI housing to ambient by the flow of oxygen, rather than being inhaled by the patient.
In this invention, an extender tube 300 (FIG. 12) is provided that can be inserted into or over the mouthpiece section 230 of an MDI body (FIGS. 8A, 8B, and 9). […] This use of the tube to channel the inhalable medication from an MDI to the mouth of the patient addresses the problem noted above that simply inserting an MDI mouthpiece into a mask with a flow of oxygen causes “wash-out” of the drug, i.e., the drug aerosol or particles (i.e., the discharge from an MDI) are dispersed within the mask and out to ambient, and as a result measured drug levels inhaled by the patient are very low. In the instant invention, measured drug levels of the MDI drug in the lung are high.

measured blood levels of the albuterol drug: negligible
SMILES: CC(C)(C)NCC(O)c1ccc(O)c(CO)c1 (stereo not shown) [albuterol HFA, albuterol]
